From US20170307631A1, “METHODS, SYSTEMS AND PRODUCTS FOR PREDICTING RESPONSE OF TUMOR CELLS TO A THERAPEUTIC AGENT AND TREATING A PATIENT ACCORDING TO THE PREDICTED RESPONSE” (Merrimack Pharmaceuticals, Inc., priority 2008, published 2017)

How the values were obtained:
ErbB2 = ErbB2 (Homo sapiens, UniProt P04626); conditions: cited from earlier work
[1] = tested on: pErbB3 and pAKT in ADRr cells; test: Inhibition of pErbB3 and pAKT by H3×B1D2 in ADRr cells; type: cell-based; conditions: ADRr cells (low ErbB2), computational model and experimental data
Method: (§1) For stimulation of the cells, the cells are seeded in duplicate wells with 1000 μl complete media at 150,000 cells per well in 12 well tissue culture plates (for 96 half well ELISA) or in duplicate plate of 100 μl complete media at 20,000 cells per well in 96 well tissue culture plates (for 384 well ELISA). These cells are incubated overnight in a humidified atmosphere of 5% CO2, 95% air and 37 degrees Celsius. Cells are then switched to serum free media: RPMI-1640 media (Gibco) supplemented with, 2 mM L-glutamine (Gibco) and units/mL Pen-Strep (Gibco). Starved cells are incubated in a humidified atmosphere of 5% CO2, 95% air and 37 degrees Celsius for 20-24 hours prior to stimulation. For dose-time matrix studies, cells are stimulated with ligand (HRG) at 0, 1, 2, 3, 4, 5, 7, 10, 20, 30, 60 and 120 minutes. […]
(§2) Levels of protein phosphorylation in the stimulated cells are measured by ELISA. ErbB1, ErbB2, and ErbB3 are measured using R&D Systems Duoset IC kits (ErbB1 DYC1095-E, ErbB2 DYC1768-E, ErbB3 DYC1769-E). […] All ELISAs are visualized with SuperSignal ELISA Pico Chemiluminescent Substrate (Pierce, Catalog #37069) and luminescent signal is measured using a luminometer. […]

LS180 xenograft = test: Xenograft tumor model treated with H3×B1D2, LS180; type: in vivo, mouse; conditions: 600 μg/injection every 3 days, RGR of 1 = no effect
Method: (§3) To characterize the in vivo response of tumors to H3×B1D2 treatment, a panel of tumor cell lines was tested in a xenograft tumor model such as described in Example 1. In the xenograft tumor models, mice (nu/nu mice: 4-5 week old female mice, athymic, nude, outbred background; Albino; purchased from Charles River Labs, Wilmington, Mass.) are implanted in the flank with 5×10^6-2×10^7 cells/mouse (depending on cell line) in […] subcutaneous injection. Mice are monitored for initial tumor growth. Tumors are allowed to grow for several days until the mean tumor volume is approximately 150-200 mm^3. The tumor volume is calculated as V=(π/6 (L×W^2). The mice are treated with the H3×B1D2 antibody at a dosage of 600 μg/injection every 3 days (q3d). Control mice are treated with phosphate buffered saline (PBS) or with wild-type HSA (human serum albumin). Tumor volume is measured for 40-80 days.
(§4) The control and treatment data from the in vivo xenograft experiments was fitted to exponential growth curves, using the following formula: […]
(§5) wherein V is the tumor volume, Vo is the tumor volume at time zero, k is the exponential growth rate and t is the time. The potency of H3×B1D2 in inhibiting tumor growth was represented as the ratio of treatment and control exponential growth rates for each cell line tested. This ratio was denoted “relative growth rate” (RGR) and is represented as: […]

IGROV1 xenograft = test: Xenograft tumor model treated with H3×B1D2, IGROV1; type: in vivo, mouse; conditions: 600 μg/injection every 3 days, RGR of 1 = no effect
Method: as §3, §4, §5

[2] = tested on: pErbB3 and pAKT in OVCAR8-HER2 cells; test: Inhibition of pErbB3 and pAKT by H3×B1D2 in OVCAR8-HER2 cells; type: cell-based; conditions: OVCAR8-HER2 (higher ErbB2 expression) compared to OVCAR8
Method: as §1, §2

[3] = tested on: pErbB3 and pAKT signaling in different cell lines; test: Inhibition of HRG-induced pErbB3 and pAKT signaling by H3×B1D2, different cell lines; type: cell-based; conditions: across different cell lines; 5 nM HRG stimulation, ten-minute lysis
Method: as §1, §2

BT474-M3 xenograft = test: Xenograft tumor model treated with H3×B1D2, BT474-M3; type: in vivo, mouse; conditions: 600 μg/injection every 3 days, negative RGR = tumor regression
Method: as §3, §4, §5

IC50 of inhibition of pErbB3 and pAKT signaling [3] | Compound | Lapatinib on-rate for binding to ErbB2 or 2-3 dimers before unit conversion (ErbB2) | percentage of inhibition of pErbB3 and pAKT [1] | relative growth rate (RGR = kH3×B1D2/kcontrol) (LS180 xenograft) | relative growth rate (RGR = kH3×B1D2/kcontrol) (IGROV1 xenograft) | inhibition percentage of pErbB3 and pAKT [2] | relative growth rate (RGR = kH3×B1D2/kcontrol) (BT474-M3 xenograft)
 | CS(=O)(=O)CCNCc1ccc(-c2ccc3ncnc(Nc4ccc(OCc5cccc(F)c5)c(Cl)c4)c3c2)o1 [lapatinib] | Unit conversion calculated as 2.95e3 M^−1s^−1/ |  |  |  |  | 
did not greatly change | H3×B1D2: bispecific antibody, anti-ErbB3 single chain antibody H3 linked to anti-ErbB2 single chain antibody B1D2, SEQ ID NO: 41 |  | poor percentage of inhibition | greater than 1 | greater than 1 | greater inhibition percentage | negative
